Experimental data taken from ChEMBL document CHEMBL5500342, “Rational molecular design converting fascaplysin derivatives to potent broad-spectrum inhibitors against bacterial pathogens via targeting FtsZ” (Eur J Med Chem, 2024).
Calls of active or inactive are those of the source. The rule behind the calls is not given here.

Experiments:
[1] = target: T1, Cell division protein FtsZ (Escherichia coli K-12) (UniProt P0A9A6); assay: Induction of FtsZ polymerization in penicillin-susceptible Escherichia coli ATCC25922 assessed as bundling of FtsZ protofilaments at 4 microg/ml preincubated for 10 mins followed by GTP addition and measured after 15 mins by transmission electron microscopic analysis; conditions: filed as activator, dose 4.0 µg/ml, time 25.0 min
T1 sequence (whole entry): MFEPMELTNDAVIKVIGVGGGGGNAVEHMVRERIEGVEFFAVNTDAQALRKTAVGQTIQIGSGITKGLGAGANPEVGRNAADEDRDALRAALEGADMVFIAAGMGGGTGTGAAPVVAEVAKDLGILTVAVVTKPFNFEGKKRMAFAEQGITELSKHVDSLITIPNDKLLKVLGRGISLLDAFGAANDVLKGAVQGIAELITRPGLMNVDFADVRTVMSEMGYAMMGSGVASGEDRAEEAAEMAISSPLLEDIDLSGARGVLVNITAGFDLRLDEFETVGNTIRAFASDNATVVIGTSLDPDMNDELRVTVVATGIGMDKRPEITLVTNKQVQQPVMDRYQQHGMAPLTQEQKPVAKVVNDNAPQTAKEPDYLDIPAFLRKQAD

Erythrocyte = assay: Hemolytic activity in human erythrocytes at 0.195 to 25 microg/ml incubated for 1 hrs by absorbance based assay; type: toxicity, cell-based; conditions: dose 0.195-25 µg/ml
Pseudomonas aeruginosa = assay: Antibacterial activity against Pseudomonas aeruginosa BNCC337940 assessed as inhibition of bacterial growth incubated for 18 hrs by CLSI protocol based microbroth dilution method; type: functional
Staphylococcus aureus [2] = assay: Bactericidal activity against methicillin-resistant Staphylococcus aureus ATCC43300 incubated for 24 hrs by CLSI protocol based microbroth dilution method; type: functional
Cell membrane [3] = assay: Disruption of cell membrane integrity in methicillin-resistant Staphylococcus aureus ATCC43300 assessed as morphological deformation at 4 times of MIC incubated for 2 hrs by transmission electron microscopic analysis; type: cell membranes
[4] = Selectivity ratio of MBC for bactericidal activity against penicillin-susceptible Escherichia coli ATCC25922 to MIC for antibacterial activity against penicillin-susceptible Escherichia coli ATCC25922; type: functional
Bacillus subtilis [5] = assay: Antibacterial activity against Bacillus subtilis BNCC336690 assessed as inhibition of bacterial growth incubated for 18 hrs by CLSI protocol based microbroth dilution method; type: functional
Salmonella enteritidis = assay: Antibacterial activity against Salmonella enteritidis BNCC281091 assessed as inhibition of bacterial growth incubated for 18 hrs by CLSI protocol based microbroth dilution method; type: functional, Salmonella enterica subsp. enterica serovar Enteritidis; conditions: Salmonella enterica
Cell membrane [6] = assay: Disruption of cell membrane integrity in methicillin-resistant Staphylococcus aureus ATCC43300 assessed as appearance of striated structures at 4 times of MIC incubated for 2 hrs by scanning electron microscopic analysis; type: cell membranes
Staphylococcus aureus [7] = assay: Antibacterial activity against methicillin-resistant Staphylococcus aureus ATCC43300 assessed as log reduction in bacterial count measured within 0.5 hrs by time kill kinetics assay; type: functional
Escherichia coli [8] = assay: Bactericidal activity against penicillin-susceptible Escherichia coli ATCC25922 incubated for 24 hrs by CLSI protocol based microbroth dilution method; type: functional
[9] = target: T2, Cell division protein FtsZ (Staphylococcus aureus) (UniProt P0A031); assay: Effect on FtsZ GTPase activity in methicillin-resistant Staphylococcus aureus ATCC43300 upto 8 microg/ml incubated for 30 mins by malachite green phosphate based assay; conditions: dose <= 8.0 µg/ml
T2 sequence (whole entry): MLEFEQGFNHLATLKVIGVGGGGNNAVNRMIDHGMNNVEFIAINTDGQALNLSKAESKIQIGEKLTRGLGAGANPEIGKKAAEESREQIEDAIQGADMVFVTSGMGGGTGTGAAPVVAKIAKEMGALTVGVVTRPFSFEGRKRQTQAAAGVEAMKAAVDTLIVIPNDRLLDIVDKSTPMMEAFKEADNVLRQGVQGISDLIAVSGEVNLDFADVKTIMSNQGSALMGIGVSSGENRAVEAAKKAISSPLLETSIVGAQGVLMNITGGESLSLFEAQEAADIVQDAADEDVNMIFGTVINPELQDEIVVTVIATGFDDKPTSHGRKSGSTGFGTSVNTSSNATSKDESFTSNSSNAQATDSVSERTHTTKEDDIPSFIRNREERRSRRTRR

Cell membrane [10] = assay: Disruption of cell membrane integrity in penicillin-susceptible Escherichia coli ATCC25922 at 4 times of MIC incubated for 2 hrs by scanning electron microscopic analysis; type: cell membranes
[11] = target: T2, Cell division protein FtsZ (Staphylococcus aureus); assay: Induction of FtsZ polymerization in methicillin-resistant Staphylococcus aureus ATCC43300 assessed as increase in size of assembly at 4 microg/ml preincubated for 10 mins followed by GTP addition and measured after 15 mins by transmission electron microscopic analysis; conditions: filed as activator, dose 4.0 µg/ml, time 25.0 min
[12] = target: T1, Cell division protein FtsZ (Escherichia coli K-12); assay: Enhancement of FtsZ GTPase activity in penicillin-susceptible Escherichia coli ATCC25922 upto 8 microg/ml incubated for 30 mins by malachite green phosphate based assay relative to control; conditions: dose <= 8.0 µg/ml
Staphylococcus aureus [13] = assay: Antibacterial activity against methicillin-resistant Staphylococcus aureus ATCC43300 assessed as reduction in bacterial count at 1 times of MIC incubated for 24 hrs by time kill kinetics assay; type: functional, organism-based
[14] = target: T2, Cell division protein FtsZ (Staphylococcus aureus); assay: Induction of FtsZ polymerization in methicillin-resistant Staphylococcus aureus ATCC43300 assessed as increase in thickness of assembly at 4 microg/ml preincubated for 10 mins followed by GTP addition and measured after 15 mins by transmission electron microscopic analysis; conditions: filed as activator, dose 4.0 µg/ml, time 25.0 min
[15] = target: T1, Cell division protein FtsZ (Escherichia coli K-12); assay: Induction of recombinant FtsZ polymerization in penicillin-susceptible Escherichia coli ATCC25922 assessed as stabilization of FtsZ polymers at 1 to 4 microg/ml incubated for 10 mins by light scattering assay; conditions: filed as activator, dose 1-4 µg/ml
Escherichia coli [16] = assay: Induction of morphological changes in penicillin-susceptible Escherichia coli ATCC25922 assessed as cell elongation at 0.5 times of MIC incubated for 4 hrs by optical microscopic analysis; type: functional, organism-based
Escherichia coli [17] = assay: Antibacterial activity against penicillin-susceptible Escherichia coli ATCC25922 assessed as inhibition of bacterial growth incubated for 18 hrs by CLSI protocol based microbroth dilution method; type: functional
[18] = target: T1, Cell division protein FtsZ (Escherichia coli K-12); assay: Induction of FtsZ polymerization in penicillin-susceptible Escherichia coli ATCC25922 assessed as larger bundles at 4 microg/ml preincubated for 10 mins followed by GTP addition and measured after 15 mins by transmission electron microscopic analysis; conditions: filed as activator, dose 4.0 µg/ml, time 25.0 min
Bacillus subtilis [19] = assay: Induction of morphological changes in Bacillus subtilis BNCC336690 assessed as cell elongation by measuring cell length at 0.5 times of MIC incubated for 4 hrs by optical microscopic analysis; type: functional
Cell membrane [20] = assay: Disruption of cell membrane integrity in methicillin-resistant Staphylococcus aureus ATCC43300 assessed as ghost cell formation at 4 times of MIC incubated for 2 hrs by transmission electron microscopic analysis; type: cell membranes
Cell membrane [21] = assay: Disruption of cell membrane integrity in methicillin-resistant Staphylococcus aureus ATCC43300 assessed as appearance of sunken fine microstructures at 4 times of MIC incubated for 2 hrs by scanning electron microscopic analysis; type: cell membranes
Streptococcus pneumoniae = assay: Antibacterial activity against Streptococcus pneumoniae ATCC49619 assessed as inhibition of bacterial growth incubated for 18 hrs by CLSI protocol based microbroth dilution method; type: functional

| SMILES | Activity [1] | Activity (Erythrocyte) | MIC (Pseudomonas aeruginosa) | MBC (Staphylococcus aureus [2]) | Activity (Cell membrane [3]) | Selectivity ratio [4] | MIC (Bacillus subtilis [5]) | MIC (Salmonella enteritidis) | Activity (Cell membrane [6]) | Activity (Staphylococcus aureus [7]) | MBC (Escherichia coli [8]) | Activity [9] | Activity (Cell membrane [10]) | Activity [11] | Activity [12] | Activity (Staphylococcus aureus [13]) | Activity [14] | Activity [15] | Activity (Escherichia coli [16]) | MIC (Escherichia coli [17]) | also measured |
| --- | --- | --- | --- | --- | --- | --- | --- | --- | --- | --- | --- | --- | --- | --- | --- | --- | --- | --- | --- | --- | --- |
| O=C1c2ccccc2-[n+]2ccc3c([nH]c4ccc(-c5ccccc5C(F)(F)F)cc43)c21.[Cl-] | Active | Non-Toxic | > 200 µg/mL | 1.56 µg/mL | Active | 4 | 0.024 µg/mL | 12.5 µg/mL | Active | >3 log10CFU/ml | 50 µg/mL | inactive | Active | Active | 10% | Active | Active | Active | Active | 12.5 µg/mL | Activity [18]: Active; Activity (Bacillus subtilis [19]): >50 um; Activity (Cell membrane [20]): Active; Activity (Cell membrane [21]): Active; MIC (Streptococcus pneumoniae): 0.195 µg/mL |
| O=C1c2ccccc2-[n+]2ccc3c([nH]c4ccc(-c5ccccc5Cl)cc43)c21.[Cl-] | Active | Non-Toxic | > 200 µg/mL | 1.56 µg/mL | Active | 4 | 0.049 µg/mL | 50 µg/mL | Active | >3 log10CFU/ml | 50 µg/mL | inactive | Active | Active | 10% | Active | Active | Active | Active | 12.5 µg/mL | Activity [18]: Active; Activity (Bacillus subtilis [19]): >50 um; Activity (Cell membrane [20]): Active; Activity (Cell membrane [21]): Active; MIC (Streptococcus pneumoniae): 0.195 µg/mL |
| O=C1c2ccccc2-[n+]2ccc3c([nH]c4ccc(-c5ccccc5F)cc43)c21.[Cl-] | Active | Non-Toxic | > 200 µg/mL | 0.195 µg/mL | Active | 1 | 0.024 µg/mL | 12.5 µg/mL | Active | >3 log10CFU/ml | 6.25 µg/mL | inactive | Active | Active | 10% | Active | Active | Active | Active | 6.25 µg/mL | Activity [18]: Active; Activity (Bacillus subtilis [19]): >50 um; Activity (Cell membrane [20]): Active; Activity (Cell membrane [21]): Active; MIC (Streptococcus pneumoniae): 0.195 µg/mL |
